According to patent US20230295119A1, “SUBSTITUTED PYRIDINES FOR THE TREATMENT OF INFLAMMATORY DISEASES” (GOSSAMER BIO SERVICES, INC., priority 2020, published 2023):

target: human JAK1 (Homo sapiens (Human), UniProt P23458); experiment: JAK1 TR-FRET kinase assay; assay type: biochemical; conditions: TR-FRET, JAK1 2.5 nM
Sequence (P23458 whole entry): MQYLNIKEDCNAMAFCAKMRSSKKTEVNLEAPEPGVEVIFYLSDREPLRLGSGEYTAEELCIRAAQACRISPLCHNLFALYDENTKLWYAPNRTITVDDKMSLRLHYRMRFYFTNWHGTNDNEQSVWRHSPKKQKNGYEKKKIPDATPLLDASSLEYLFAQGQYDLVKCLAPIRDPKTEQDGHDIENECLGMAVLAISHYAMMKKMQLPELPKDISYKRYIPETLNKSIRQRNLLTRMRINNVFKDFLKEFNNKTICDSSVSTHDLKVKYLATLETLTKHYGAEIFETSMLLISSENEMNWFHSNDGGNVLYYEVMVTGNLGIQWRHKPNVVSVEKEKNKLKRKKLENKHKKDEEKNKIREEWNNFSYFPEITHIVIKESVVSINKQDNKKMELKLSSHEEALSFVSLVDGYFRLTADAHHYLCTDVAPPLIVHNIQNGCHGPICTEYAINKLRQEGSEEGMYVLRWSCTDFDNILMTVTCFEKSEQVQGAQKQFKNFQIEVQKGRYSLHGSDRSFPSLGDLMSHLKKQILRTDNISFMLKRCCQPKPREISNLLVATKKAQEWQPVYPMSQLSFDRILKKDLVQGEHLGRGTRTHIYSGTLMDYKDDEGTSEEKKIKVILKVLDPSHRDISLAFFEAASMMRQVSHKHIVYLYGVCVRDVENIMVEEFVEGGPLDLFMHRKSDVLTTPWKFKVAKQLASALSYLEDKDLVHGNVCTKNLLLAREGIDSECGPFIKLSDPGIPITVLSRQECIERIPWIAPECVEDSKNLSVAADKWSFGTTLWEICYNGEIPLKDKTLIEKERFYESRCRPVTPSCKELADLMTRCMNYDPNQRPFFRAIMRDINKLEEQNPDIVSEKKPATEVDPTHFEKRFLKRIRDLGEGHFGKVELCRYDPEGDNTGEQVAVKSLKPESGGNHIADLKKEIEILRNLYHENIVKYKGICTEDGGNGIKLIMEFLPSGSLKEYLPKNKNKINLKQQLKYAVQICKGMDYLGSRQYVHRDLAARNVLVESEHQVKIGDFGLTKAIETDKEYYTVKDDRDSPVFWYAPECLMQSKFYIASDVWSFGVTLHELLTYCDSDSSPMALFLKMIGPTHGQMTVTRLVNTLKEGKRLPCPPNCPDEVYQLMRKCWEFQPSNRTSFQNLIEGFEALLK

| IC50 [nM] | SMILES |
| --- | --- |
| ≥ 500 | COc1c(Nc2cc(Nc3ccc(OCCO)cn3)ncc2C(=O)C2CC2)cccc1-c1ncn(C)n1 [Compound 18B] |
| ≥ 500 | CCC(=O)c1cnc(Nc2ncc(OCC3COC3)cc2F)cc1Nc1cccc(-c2ncn(C)n2)c1OC [Compound 18CCCC] |
| ≥ 500 | CCC(=O)c1cnc(Nc2cnc(O[C@@H]3CCN(C)C3)cn2)cc1Nc1nccc(-c2ncn(C)n2)c1OC [Compound 18CCC] |
| ≥ 500 | CCC(=O)c1cnc(Nc2ccc(OCCN3CCCC3)nn2)cc1Nc1cccc(-c2ncn(C)n2)c1OC [Compound 18CC] |
| ≥ 500 | COc1c(Nc2cc(Nc3ccc(OCCCO)cn3)ncc2C(=O)C2CC2)cccc1-c1ncn(C)n1 [Compound 18C] |
| ≥ 500 | CCC(=O)c1cnc(Nc2ccc(OC3CN(C)C3)nn2)cc1Nc1cccc(-c2ncn(C)n2)c1OC [Compound 18DDDD] |
| ≥ 500 | CCC(=O)c1cnc(Nc2ccc(OCCCN3CCCC3)nn2)cc1Nc1cccc(-c2ncn(C)n2)c1OC [Compound 18DD] |
| ≥ 500 | CCC(=O)c1cnc(Nc2ccc(OCCOC)cn2)cc1Nc1cccc(-c2ncn(C)n2)c1OC [Compound 18D] |
| ≥ 500 | CCC(=O)c1cnc(Nc2cnc(OC3CCN(C)CC3)cn2)cc1Nc1cccc(-c2ncn(C)n2)c1OC [Compound 18EEE] |
| ≥ 500 | CCC(=O)c1cnc(Nc2ccc(OC3CCN(C)CC3)nn2)cc1Nc1cccc(-c2ncn(C)n2)c1OC [Compound 18EE] |
| ≥ 500 | CCC(=O)c1cnc(Nc2ccc(OCC(C)(C)O)cn2)cc1Nc1cccc(-c2ncn(C)n2)c1OC [Compound 18E] |
| ≥ 500 | CCC(=O)c1cnc(Nc2ccc(O[C@@H]3CCN(C)C3)nn2)cc1Nc1cccc(-c2ncn(C)n2)c1OC [Compound 18FF] |
| ≥ 500 | CCC(=O)c1cnc(Nc2ccc(OC[C@@H](O)CO)cn2)cc1Nc1cccc(-c2ncn(C)n2)c1OC [Compound 18F] |
| ≥ 500 | CCC(=O)c1cnc(Nc2cnc(OCCN3CCOCC3)cn2)cc1Nc1cccc(-c2ncn(C)n2)c1OC [Compound 18GGG] |
| ≥ 500 | CCC(=O)c1cnc(Nc2ccc(O[C@H]3CCN(C)C3)nn2)cc1Nc1cccc(-c2ncn(C)n2)c1OC [Compound 18GG] |
| ≥ 500 | CCC(=O)c1cnc(Nc2ccc(OC[C@H](O)CO)cn2)cc1Nc1cccc(-c2ncn(C)n2)c1OC [Compound 18G] |

target: TYK2 JH2 domain (Homo sapiens (Human), UniProt P29597); experiment: TYK2 JH2 NanoBRET assay; assay type: binding; conditions: Table 20, read-out: TYK2 IC50
Procedure, shortened: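 HEK293T cells transiently expressing NanoLuc-TYK2 JH2 fusion, incubated 2 h with compound and NanoBRET K10 tracer (0.5 µM final). Target engagement read as acceptor/donor BRET ratio after Nano-Glo substrate plus extracellular NanoLuc inhibitor.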

TYK2 JH2 domain, sequence (P29597 589-875): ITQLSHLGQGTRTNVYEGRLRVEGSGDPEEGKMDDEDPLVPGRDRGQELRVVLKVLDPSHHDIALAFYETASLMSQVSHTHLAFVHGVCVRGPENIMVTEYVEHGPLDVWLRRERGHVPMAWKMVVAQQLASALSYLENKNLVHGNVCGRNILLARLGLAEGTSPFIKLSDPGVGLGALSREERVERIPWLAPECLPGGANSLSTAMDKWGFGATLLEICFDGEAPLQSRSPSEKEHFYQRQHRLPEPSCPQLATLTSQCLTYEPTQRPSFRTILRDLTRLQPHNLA

| IC50 [nM] | SMILES |
| --- | --- |
| < 5 | COc1c(Nc2cc(Nc3ccc(OCCO)cn3)ncc2C(=O)C2CC2)cccc1-c1ncn(C)n1 [Compound 18B] |
| 50 to 500 | CCC(=O)c1cnc(Nc2ncc(OCC3COC3)cc2F)cc1Nc1cccc(-c2ncn(C)n2)c1OC [Compound 18CCCC] |
| ≥ 500 | CCC(=O)c1cnc(Nc2cnc(O[C@@H]3CCN(C)C3)cn2)cc1Nc1nccc(-c2ncn(C)n2)c1OC [Compound 18CCC] |
| < 5 | CCC(=O)c1cnc(Nc2ccc(OCCN3CCCC3)nn2)cc1Nc1cccc(-c2ncn(C)n2)c1OC [Compound 18CC] |
| < 5 | COc1c(Nc2cc(Nc3ccc(OCCCO)cn3)ncc2C(=O)C2CC2)cccc1-c1ncn(C)n1 [Compound 18C] |
| 5 to 50 | CCC(=O)c1cnc(Nc2ccc(OC3CN(C)C3)nn2)cc1Nc1cccc(-c2ncn(C)n2)c1OC [Compound 18DDDD] |
| < 5 | CCC(=O)c1cnc(Nc2ccc(OCCCN3CCCC3)nn2)cc1Nc1cccc(-c2ncn(C)n2)c1OC [Compound 18DD] |
| 5 to 50 | CCC(=O)c1cnc(Nc2ccc(OCCOC)cn2)cc1Nc1cccc(-c2ncn(C)n2)c1OC [Compound 18D] |
| < 5 | CCC(=O)c1cnc(Nc2cnc(OC3CCN(C)CC3)cn2)cc1Nc1cccc(-c2ncn(C)n2)c1OC [Compound 18EEE] |
| < 5 | CCC(=O)c1cnc(Nc2ccc(OC3CCN(C)CC3)nn2)cc1Nc1cccc(-c2ncn(C)n2)c1OC [Compound 18EE] |
| < 5 | CCC(=O)c1cnc(Nc2ccc(OCC(C)(C)O)cn2)cc1Nc1cccc(-c2ncn(C)n2)c1OC [Compound 18E] |
| 5 to 50 | CCC(=O)c1cnc(Nc2ccc(O[C@@H]3CCN(C)C3)nn2)cc1Nc1cccc(-c2ncn(C)n2)c1OC [Compound 18FF] |
| 5 to 50 | CCC(=O)c1cnc(Nc2ccc(OC[C@@H](O)CO)cn2)cc1Nc1cccc(-c2ncn(C)n2)c1OC [Compound 18F] |
| 5 to 50 | CCC(=O)c1cnc(Nc2cnc(OCCN3CCOCC3)cn2)cc1Nc1cccc(-c2ncn(C)n2)c1OC [Compound 18GGG] |
| 5 to 50 | CCC(=O)c1cnc(Nc2ccc(O[C@H]3CCN(C)C3)nn2)cc1Nc1cccc(-c2ncn(C)n2)c1OC [Compound 18GG] |
| 5 to 50 | CCC(=O)c1cnc(Nc2ccc(OC[C@H](O)CO)cn2)cc1Nc1cccc(-c2ncn(C)n2)c1OC [Compound 18G] |

target: human JAK2 (Homo sapiens (Human), UniProt O60674); experiment: JAK2 TR-FRET kinase assay; assay type: biochemical; conditions: JAK2 0.025 nM
Sequence (O60674 whole entry): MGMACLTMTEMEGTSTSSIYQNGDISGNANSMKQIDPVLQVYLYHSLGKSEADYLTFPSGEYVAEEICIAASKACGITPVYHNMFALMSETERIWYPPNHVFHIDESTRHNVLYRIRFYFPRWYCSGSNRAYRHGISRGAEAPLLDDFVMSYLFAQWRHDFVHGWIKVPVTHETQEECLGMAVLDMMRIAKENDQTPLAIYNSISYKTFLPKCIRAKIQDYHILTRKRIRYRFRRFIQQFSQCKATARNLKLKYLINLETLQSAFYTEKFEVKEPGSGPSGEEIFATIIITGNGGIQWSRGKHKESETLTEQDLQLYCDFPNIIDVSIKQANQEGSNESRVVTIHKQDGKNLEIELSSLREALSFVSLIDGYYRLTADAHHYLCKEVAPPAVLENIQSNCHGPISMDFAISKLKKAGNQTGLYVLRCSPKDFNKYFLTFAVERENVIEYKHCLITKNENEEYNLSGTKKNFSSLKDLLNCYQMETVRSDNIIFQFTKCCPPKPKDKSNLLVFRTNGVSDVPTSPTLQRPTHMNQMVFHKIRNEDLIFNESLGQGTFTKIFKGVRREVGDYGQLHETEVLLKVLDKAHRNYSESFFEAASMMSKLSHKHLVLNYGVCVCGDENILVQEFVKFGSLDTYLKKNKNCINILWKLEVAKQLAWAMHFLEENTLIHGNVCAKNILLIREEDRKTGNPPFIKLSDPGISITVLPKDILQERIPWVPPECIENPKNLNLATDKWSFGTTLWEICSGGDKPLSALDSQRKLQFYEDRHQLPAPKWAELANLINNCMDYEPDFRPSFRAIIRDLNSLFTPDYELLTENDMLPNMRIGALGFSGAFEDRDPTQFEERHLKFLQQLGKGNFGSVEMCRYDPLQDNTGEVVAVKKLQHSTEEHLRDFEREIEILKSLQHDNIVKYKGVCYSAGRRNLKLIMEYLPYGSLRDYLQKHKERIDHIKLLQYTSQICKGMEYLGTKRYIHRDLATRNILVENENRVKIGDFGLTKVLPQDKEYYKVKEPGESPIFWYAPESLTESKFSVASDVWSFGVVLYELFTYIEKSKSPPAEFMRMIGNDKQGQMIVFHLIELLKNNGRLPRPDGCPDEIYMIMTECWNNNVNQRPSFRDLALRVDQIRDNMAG

| IC50 [nM] | SMILES |
| --- | --- |
| ≥ 500 | COc1c(Nc2cc(Nc3ccc(OCCO)cn3)ncc2C(=O)C2CC2)cccc1-c1ncn(C)n1 [Compound 18B] |
| ≥ 500 | CCC(=O)c1cnc(Nc2ncc(OCC3COC3)cc2F)cc1Nc1cccc(-c2ncn(C)n2)c1OC [Compound 18CCCC] |
| ≥ 500 | CCC(=O)c1cnc(Nc2cnc(O[C@@H]3CCN(C)C3)cn2)cc1Nc1nccc(-c2ncn(C)n2)c1OC [Compound 18CCC] |
| ≥ 500 | CCC(=O)c1cnc(Nc2ccc(OCCN3CCCC3)nn2)cc1Nc1cccc(-c2ncn(C)n2)c1OC [Compound 18CC] |
| ≥ 500 | COc1c(Nc2cc(Nc3ccc(OCCCO)cn3)ncc2C(=O)C2CC2)cccc1-c1ncn(C)n1 [Compound 18C] |
| ≥ 500 | CCC(=O)c1cnc(Nc2ccc(OC3CN(C)C3)nn2)cc1Nc1cccc(-c2ncn(C)n2)c1OC [Compound 18DDDD] |
| ≥ 500 | CCC(=O)c1cnc(Nc2ccc(OCCCN3CCCC3)nn2)cc1Nc1cccc(-c2ncn(C)n2)c1OC [Compound 18DD] |
| ≥ 500 | CCC(=O)c1cnc(Nc2ccc(OCCOC)cn2)cc1Nc1cccc(-c2ncn(C)n2)c1OC [Compound 18D] |
| ≥ 500 | CCC(=O)c1cnc(Nc2cnc(OC3CCN(C)CC3)cn2)cc1Nc1cccc(-c2ncn(C)n2)c1OC [Compound 18EEE] |
| ≥ 500 | CCC(=O)c1cnc(Nc2ccc(OC3CCN(C)CC3)nn2)cc1Nc1cccc(-c2ncn(C)n2)c1OC [Compound 18EE] |
| 50 to 500 | CCC(=O)c1cnc(Nc2ccc(OCC(C)(C)O)cn2)cc1Nc1cccc(-c2ncn(C)n2)c1OC [Compound 18E] |
| ≥ 500 | CCC(=O)c1cnc(Nc2ccc(O[C@@H]3CCN(C)C3)nn2)cc1Nc1cccc(-c2ncn(C)n2)c1OC [Compound 18FF] |
| ≥ 500 | CCC(=O)c1cnc(Nc2ccc(OC[C@@H](O)CO)cn2)cc1Nc1cccc(-c2ncn(C)n2)c1OC [Compound 18F] |
| ≥ 500 | CCC(=O)c1cnc(Nc2cnc(OCCN3CCOCC3)cn2)cc1Nc1cccc(-c2ncn(C)n2)c1OC [Compound 18GGG] |
| ≥ 500 | CCC(=O)c1cnc(Nc2ccc(O[C@H]3CCN(C)C3)nn2)cc1Nc1cccc(-c2ncn(C)n2)c1OC [Compound 18GG] |
| ≥ 500 | CCC(=O)c1cnc(Nc2ccc(OC[C@H](O)CO)cn2)cc1Nc1cccc(-c2ncn(C)n2)c1OC [Compound 18G] |

target: human JAK3 (Homo sapiens (Human), UniProt P52333); experiment: JAK3 TR-FRET kinase assay; assay type: biochemical; conditions: JAK3 0.0125 nM
Sequence (P52333 whole entry): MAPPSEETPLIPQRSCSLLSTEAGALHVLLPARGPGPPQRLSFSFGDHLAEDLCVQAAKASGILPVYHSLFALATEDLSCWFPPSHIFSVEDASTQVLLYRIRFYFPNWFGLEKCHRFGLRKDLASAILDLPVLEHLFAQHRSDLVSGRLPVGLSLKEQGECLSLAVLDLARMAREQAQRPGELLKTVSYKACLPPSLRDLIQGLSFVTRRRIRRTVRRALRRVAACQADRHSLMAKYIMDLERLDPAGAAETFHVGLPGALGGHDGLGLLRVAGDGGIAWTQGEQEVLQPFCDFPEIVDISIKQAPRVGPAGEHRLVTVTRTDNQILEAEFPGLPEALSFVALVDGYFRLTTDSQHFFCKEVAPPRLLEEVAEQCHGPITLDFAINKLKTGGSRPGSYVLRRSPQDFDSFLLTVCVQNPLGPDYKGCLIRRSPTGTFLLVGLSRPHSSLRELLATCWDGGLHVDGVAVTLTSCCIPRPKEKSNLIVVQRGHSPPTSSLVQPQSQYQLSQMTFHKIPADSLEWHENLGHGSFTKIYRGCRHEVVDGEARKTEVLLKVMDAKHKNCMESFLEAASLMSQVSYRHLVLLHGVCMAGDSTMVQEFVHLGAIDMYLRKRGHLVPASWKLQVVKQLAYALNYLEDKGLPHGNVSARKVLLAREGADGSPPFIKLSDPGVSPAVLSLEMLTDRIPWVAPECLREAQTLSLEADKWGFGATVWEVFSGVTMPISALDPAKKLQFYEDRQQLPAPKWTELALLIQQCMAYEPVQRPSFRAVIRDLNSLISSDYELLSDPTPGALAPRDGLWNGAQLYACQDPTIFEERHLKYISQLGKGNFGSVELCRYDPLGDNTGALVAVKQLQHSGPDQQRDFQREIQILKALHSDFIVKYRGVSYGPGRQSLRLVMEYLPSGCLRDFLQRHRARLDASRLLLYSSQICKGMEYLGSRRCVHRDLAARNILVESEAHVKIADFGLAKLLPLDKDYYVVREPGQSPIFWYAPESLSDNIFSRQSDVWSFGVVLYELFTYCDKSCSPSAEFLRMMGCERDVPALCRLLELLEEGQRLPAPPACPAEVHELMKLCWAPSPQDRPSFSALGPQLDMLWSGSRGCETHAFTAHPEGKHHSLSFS

| IC50 [nM] | SMILES |
| --- | --- |
| ≥ 500 | COc1c(Nc2cc(Nc3ccc(OCCO)cn3)ncc2C(=O)C2CC2)cccc1-c1ncn(C)n1 [Compound 18B] |
| ≥ 500 | CCC(=O)c1cnc(Nc2ncc(OCC3COC3)cc2F)cc1Nc1cccc(-c2ncn(C)n2)c1OC [Compound 18CCCC] |
| ≥ 500 | CCC(=O)c1cnc(Nc2cnc(O[C@@H]3CCN(C)C3)cn2)cc1Nc1nccc(-c2ncn(C)n2)c1OC [Compound 18CCC] |
| ≥ 500 | CCC(=O)c1cnc(Nc2ccc(OCCN3CCCC3)nn2)cc1Nc1cccc(-c2ncn(C)n2)c1OC [Compound 18CC] |
| ≥ 500 | COc1c(Nc2cc(Nc3ccc(OCCCO)cn3)ncc2C(=O)C2CC2)cccc1-c1ncn(C)n1 [Compound 18C] |
| ≥ 500 | CCC(=O)c1cnc(Nc2ccc(OC3CN(C)C3)nn2)cc1Nc1cccc(-c2ncn(C)n2)c1OC [Compound 18DDDD] |
| ≥ 500 | CCC(=O)c1cnc(Nc2ccc(OCCCN3CCCC3)nn2)cc1Nc1cccc(-c2ncn(C)n2)c1OC [Compound 18DD] |
| 50 to 500 | CCC(=O)c1cnc(Nc2ccc(OCCOC)cn2)cc1Nc1cccc(-c2ncn(C)n2)c1OC [Compound 18D] |
| ≥ 500 | CCC(=O)c1cnc(Nc2cnc(OC3CCN(C)CC3)cn2)cc1Nc1cccc(-c2ncn(C)n2)c1OC [Compound 18EEE] |
| ≥ 500 | CCC(=O)c1cnc(Nc2ccc(OC3CCN(C)CC3)nn2)cc1Nc1cccc(-c2ncn(C)n2)c1OC [Compound 18EE] |
| 50 to 500 | CCC(=O)c1cnc(Nc2ccc(OCC(C)(C)O)cn2)cc1Nc1cccc(-c2ncn(C)n2)c1OC [Compound 18E] |
| ≥ 500 | CCC(=O)c1cnc(Nc2ccc(O[C@@H]3CCN(C)C3)nn2)cc1Nc1cccc(-c2ncn(C)n2)c1OC [Compound 18FF] |
| 50 to 500 | CCC(=O)c1cnc(Nc2ccc(OC[C@@H](O)CO)cn2)cc1Nc1cccc(-c2ncn(C)n2)c1OC [Compound 18F] |
| ≥ 500 | CCC(=O)c1cnc(Nc2cnc(OCCN3CCOCC3)cn2)cc1Nc1cccc(-c2ncn(C)n2)c1OC [Compound 18GGG] |
| ≥ 500 | CCC(=O)c1cnc(Nc2ccc(O[C@H]3CCN(C)C3)nn2)cc1Nc1cccc(-c2ncn(C)n2)c1OC [Compound 18GG] |
| ≥ 500 | CCC(=O)c1cnc(Nc2ccc(OC[C@H](O)CO)cn2)cc1Nc1cccc(-c2ncn(C)n2)c1OC [Compound 18G] |
